Laboratory results reported in article PMC9001643, “Conservation of the unusual dimeric JmjC fold of JMJD7 from Drosophila melanogaster to humans” (Scientific Reports, 2022).
pIC50: −log10 of the molar value.

Assays:
dmJMJD7 [1] = target: T1, dmJMJD7 (Drosophila melanogaster, UniProt Q9VU77); experiment: crystal structure; SPE-MS inhibition assay with DRG1 peptide; assay type: biochemical
T1 construct: gene JMJD7; full-length dmJMJD7, aa 1–316, N-terminally His6-tagged

dmJMJD7 [2] = target: T1, dmJMJD7; experiment: crystal structure; assay type: binding

T1 sequence (Q9VU77 whole entry, the tested form may be a part): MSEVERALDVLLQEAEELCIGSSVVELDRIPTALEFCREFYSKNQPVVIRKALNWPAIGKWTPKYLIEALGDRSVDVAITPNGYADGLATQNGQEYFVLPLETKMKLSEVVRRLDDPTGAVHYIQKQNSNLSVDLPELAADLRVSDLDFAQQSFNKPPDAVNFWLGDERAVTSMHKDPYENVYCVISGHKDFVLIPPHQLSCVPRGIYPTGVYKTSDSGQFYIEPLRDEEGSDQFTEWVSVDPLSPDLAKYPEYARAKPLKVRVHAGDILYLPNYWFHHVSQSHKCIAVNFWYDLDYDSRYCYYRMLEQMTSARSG

SMILES	pIC50 (dmJMJD7 [1])	crystal structure (dmJMJD7 [2])
O=C(O)CCC(=O)C(=O)O [2OG, 2-oxoglutarate]		crystals of His6-dmJMJD7.Mn complexed with its co-substrate 2OG or co-product succinate
C[C@@H](NC(=O)C(=O)O)C(=O)O [NODA, N-oxalyl-D-alanine]	5.38	
O=C(O)C(=O)N[C@H](Cc1ccccc1)C(=O)O [NOFD, N-oxalyl-D-phenylalanine]		dmJMJD7.N-oxalyl-D-phenylalanine (PDB: 7YXL)
O=C(O)CCC(=O)O [succinate]		dmJMJD7.succinate (PDB: 7YXH)

Further lines, with some results ahead:

pIC50 (dmJMJD7 [1])	SMILES	crystal structure (dmJMJD7 [2])
5.87	O=C(O)c1ccnc(C(=O)O)c1 [2,4-PDCA, pyridine-2,4-dicarboxylate]	
6.52	O=C(O)CNC(=O)C(=O)O [NOG, N-oxalylglycine]	
